Assay results published in patent US12116388B2, “Amylin receptor agonists” (Novo Nordisk A/S, priority 2022, dated 2024).
Starred links: 1 amine or outer side, 2 acyl side, 3 side chain; linkers in the order of their positions; H or OH if unused. Positions of bridges follow the written chain, without caps; N, C: chain ends. Residues, ends and D or L forms follow the SMILES beside them. *: point of attachment. C20 diacid = O=C(O)CCCCCCCCCCCCCCCCCCC(=O)*; C18 diacid = O=C(O)CCCCCCCCCCCCCCCCC(=O)*; γGlu = O=C(O)[C@H](CCC(=O)[*:2])N[*:1]

How the values were obtained:
[1] = Oral pharmacokinetic profiles in Beagle dogs (SNAC tablets); type: in vivo; details: oral tablet: 3 mg compound, 300 mg SNAC, 7.7 mg magnesium stearate
Description: To be able to evaluate oral exposure following tablet dosing, tablet compositions comprising the test substance and SNAC (sodium N-(8-(2-hydroxybenzoyl)amino)caprylate) were prepared by mixing test substance with roller compacted SNAC and magnesium stearate as, e.g., described in WO 2019/149880.
This assay was performed to measure the oral bioavailability of a compound. The assay determined the exposure of test compound following oral administration in Beagle dogs as described by relevant pharmacokinetic parameters and plasma concentration curves.
Preparation of tablets for oral administration: tablets containing test compound used for the assay described herein were immediate release SNAC-based tablets. The test compound was spray-dried as neutral sodium salt (pH 7-8). Dry granulation was carried out by roller compaction on a Gerteis MINI-PACTOR. Tablets containing 3 mg test compound, 300 mg sodium N-(8-(2-hydroxybenzoyl)amino)caprylate (SNAC) and 7.7 mg magnesium stearate were produced on at Kilian Style One using 7.2×12 mm punches.
Determination of the absorption following oral administration: eight (8) male Beagle dogs, 1 to 8 years of age and weighing approximately 10-15 kg at the start of the studies, were used. The dogs were group-housed in pens (12 hours light:12 hours dark), and fed individually and restrictedly once daily with Royal Canin Medium Adult dog (Royal Canin Products, China Branch, or Brogaarden A/S, Denmark). Exercise and group social were permitted daily, whenever possible. The dogs were used for repeated pharmacokinetic studies with a suitable wash-out period between successive dosing. An appropriate acclimatisation period was given prior to initiation of the first pharmacokinetic study. All handling, dosing and blood sampling of the animals were performed by trained and skilled staff. Before the studies the dogs were fasted overnight and from 0 to 4 h after dosing. Besides, the dogs were restricted to water 1 hour before dosing until 4 hours after dosing, but otherwise had ad libitum access to water during the whole period.
Tablets containing the test compound were administered in the following manner: 10 min prior to tablet administration the dogs were dosed subcutaneously with approximately 3.2 nmol/kg of glucagon. The tablets were placed in the back of the mouth of the dog to prevent chewing. The mouth was then closed, and 10 mL of tap water was given by a syringe to facilitate swallowing of the tablet. Blood was sampled at predefined time points for up till 288 hours after dosing to adequately cover the full plasma concentration-time absorption profile of the compound. For each blood sampling time point approximately 1.2 mL of whole blood was collected in a 1.5 mL EDTA coated tube, and the tube was gently turned to allowing mixing of the sample with the EDTA. Then, the blood samples were kept on ice until centrifugation (4 min, 4° C., 4000 rpm). Plasma was pipetted into Micronic tubes on dry ice and kept at −20° C. until analysis. Blood samples were taken as appropriate, for example from a venflon in the cephalic vein in the front leg for the first 2 hours and then with syringe from the jugular vein for the rest of the time points (the first few drops were allowed to drain from the venflon to avoid heparin saline from the venflon in the sample).
Bioanalysis was carried out as follows: plasma concentrations of test compound were assayed by plasma protein precipitation and analysed by liquid chromatography-mass spectrometry (LC-MS). Calibrators were prepared by spiking blank dog plasma with analytes to reach the final concentrations in the range typically from 0.5 to 200 nM. Calibrators, plasma blanks or study samples were prepared for LC-MS by protein precipitation by adding 3 volumes of ethanol followed by centrifugation at 4000 rpm at 4° C. for 1 h. The supernatant was diluted with 2 volumes of Milli-Q water containing 0.1% formic acid before injection on the LC-MS system. […]

[2] = target: T1, human amylin receptor (hAMYR3) (Homo sapiens, UniProt O60896+P30988); test: Human amylin receptor (hAMYR3) in vitro potency assay, CRE-luciferase reporter in BHK cells; type: cell-based; details: BHK hAMYR3/CRE-Luc cells, 3 hours incubation, assay buffer with 1% ovalbumin
T1 construct: host or cells: BHK (Baby Hamster Kidney), Hollex-1 cell line further transfected with RAMP3
How it was run: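 BHK cells stably expressing human calcitonin receptor (a) plus RAMP3 and a CRE-luciferase reporter, seeded overnight, then exposed to 7-point 7-fold dilutions (often from ~10 nM) in DMEM/HEPES buffer with 1% ovalbumin for 3 h at 37 °C. Luciferase luminescence read after SteadyLite Plus addition.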

[3] = target: T2, human calcitonin receptor (hCTR) (Homo sapiens, UniProt P30988); test: Human calcitonin receptor (hCTR) in vitro potency assay, CRE-luciferase reporter in BHK cells; type: cell-based; details: BHK hCTR/CRE-Luc cells, 3 hours incubation, assay buffer with 1% ovalbumin; read-out: hCalcR potency, EC50
T2 construct: host or cells: BHK (Baby Hamster Kidney), Hollex-1 cell line
T2 sequence (P30988 25-474): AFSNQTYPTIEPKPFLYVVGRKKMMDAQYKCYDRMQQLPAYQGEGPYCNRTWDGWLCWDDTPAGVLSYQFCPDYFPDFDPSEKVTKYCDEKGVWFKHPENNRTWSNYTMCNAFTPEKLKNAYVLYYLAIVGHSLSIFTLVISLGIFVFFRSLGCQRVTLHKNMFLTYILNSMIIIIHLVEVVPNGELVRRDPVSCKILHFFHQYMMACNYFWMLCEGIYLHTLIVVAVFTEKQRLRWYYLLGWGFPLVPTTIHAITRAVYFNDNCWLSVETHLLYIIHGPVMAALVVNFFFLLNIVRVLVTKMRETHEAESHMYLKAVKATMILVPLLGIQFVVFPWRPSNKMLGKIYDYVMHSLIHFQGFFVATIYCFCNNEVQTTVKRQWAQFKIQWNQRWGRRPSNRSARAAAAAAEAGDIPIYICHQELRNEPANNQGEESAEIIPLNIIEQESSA
How it was run: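 BHK cells stably co-expressing human calcitonin receptor and a CRE-luciferase reporter, seeded the day before, were exposed to 7-fold serial dilutions (7 concentrations, often starting near 10 nM) in DMEM/HEPES/1% ovalbumin buffer for 3 h at 37 °C. Luminescence was then read after SteadyLite Plus addition.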

T1 sequence (O60896 24-148, one chain of several): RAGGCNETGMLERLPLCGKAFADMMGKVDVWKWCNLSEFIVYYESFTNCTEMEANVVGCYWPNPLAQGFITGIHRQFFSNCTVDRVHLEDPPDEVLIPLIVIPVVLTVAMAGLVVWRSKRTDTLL

Row | Cmax/D [1] [kg/L] | EC50 [2] [pM] | EC50 [3] [pM] | SMILES
1 | 0.057 |  |  | CC[C@H](C)[C@H](NC(=O)[C@@H]1CCCN1C(=O)CNC(=O)[C@H](Cc1ccccc1)NC(=O)[C@H](CC(N)=O)NC(=O)[C@H](CC(N)=O)NC(=O)[C@H](CO)NC(=O)[C@H](CO)NC(=O)[C@H](Cc1c[nH]cn1)NC(=O)[C@H](CCCNC(=N)N)NC(=O)[C@H](CC(C)C)NC(=O)[C@H](Cc1ccccc1)NC(=O)[C@H](CCC(=O)O)NC(=O)[C@H](C)NC(=O)[C@H](CC(C)C)NC(=O)[C@H](CCCNC(=N)N)NC(=O)[C@H](CCC(N)=O)NC(=O)[C@@H](NC(=O)[C@H](C)NC(=O)[C@@H]1CSSC[C@H](NC(=O)[C@H](CCCCN)NC(=O)CC[C@H](NC(=O)CCCCCCCCCCCCCCCCCCC(=O)O)C(=O)O)C(=O)N[C@@H](CC(N)=O)C(=O)N[C@@H]([C@@H](C)O)C(=O)N[C@@H](C)C(=O)N[C@@H]([C@@H](C)O)C(=O)N1)[C@@H](C)O)C(=O)N[C@@H](CC(C)C)C(=O)N1CCC[C@H]1C(=O)N1CCC[C@H]1C(=O)N[C@H](C(=O)N[C@@H](CCC(N)=O)C(=O)N[C@H](C(=O)NCC(=O)N[C@@H](CO)C(=O)N[C@@H](CC(N)=O)C(=O)N[C@H](C(=O)N1CCC[C@H]1C(N)=O)[C@@H](C)O)C(C)C)[C@@H](C)O [Compound 1, N^1Alpha-[(4S)-4-carboxy-4-(19-carboxynonadecanoylamino)butanoyl]-[Glu14,Arg17,Pro25,Pro28,Pro29,Gln31,Pro37]-human amylin, reference compound] ({C20 diacid-γGlu}-KCNTATCATQRLAEFLRHSSNNFGPILPPTQVGSNTP-NH2; disulfide 2-7)
2 |  | 2.11 | 2.78 | CC[C@H](C)[C@H](NC(=O)[C@@H]1CCCN1C(=O)CNC(=O)[C@H](Cc1ccccc1)NC(=O)[C@H](Cc1c[nH]cn1)NC(=O)[C@H](Cc1c[nH]cn1)NC(=O)[C@H](CC(C)C)NC(=O)[C@H](Cc1ccccc1)NC(=O)[C@H](CCC(=O)O)NC(=O)[C@H](C)NC(=O)[C@H](CC(C)C)NC(=O)[C@H](CCCNC(=N)N)NC(=O)[C@H](C)NC(=O)[C@@H](NC(=O)[C@H](CCC(N)=O)NC(=O)[C@H](C)NC(=O)[C@@H](NC(=O)[C@H](CO)NC(=O)[C@H](CC(C)C)NC(=O)[C@H](Cc1c[nH]cn1)NC(=O)[C@H](CO)NC(=O)[C@H](C)NC(=O)CC[C@H](NC(=O)CCCCCCCCCCCCCCCCC(=O)O)C(=O)O)[C@@H](C)O)[C@@H](C)O)C(=O)N[C@@H](CC(C)C)C(=O)N1CCC[C@H]1C(=O)N1CCC[C@H]1C(=O)N[C@H](C(=O)N[C@@H](CC(=O)O)C(=O)N[C@H](C(=O)NCC(=O)N[C@@H](CO)C(=O)N[C@@H](CCC(=O)O)C(=O)N[C@H](C(=O)N[C@@H](Cc1ccc(O)cc1)C(N)=O)[C@@H](C)O)C(C)C)[C@@H](C)O [Compound 42, N^1-[(4S)-4-carboxy-4-(17-carboxyheptadecanoylamino)butanoyl]-[Ala1,Ser2,His3,Leu4,Ser5,Ala7,Gln8,Ala10,Glu14,His17,Pro25,Pro28,Pro29,Asp31,Glu35],des-(19-22)-human amylin] ({C18 diacid-γGlu}-ASHLSTAQTARLAEFLHHFGPILPPTDVGSETY-NH2)
3 |  | 1.06 | 1.76 | CC[C@H](C)[C@H](NC(=O)[C@@H]1CCCN1C(=O)CNC(=O)[C@H](Cc1ccccc1)NC(=O)[C@H](Cc1c[nH]cn1)NC(=O)[C@H](Cc1c[nH]cn1)NC(=O)[C@H](CC(C)C)NC(=O)[C@H](Cc1ccccc1)NC(=O)[C@H](CCC(=O)O)NC(=O)[C@H](C)NC(=O)[C@H](CC(C)C)NC(=O)[C@H](CCCNC(=N)N)NC(=O)[C@H](C)NC(=O)[C@@H](NC(=O)[C@H](CCC(N)=O)NC(=O)[C@H](C)NC(=O)[C@@H](NC(=O)[C@H](CO)NC(=O)[C@H](CC(C)C)NC(=O)[C@H](Cc1c[nH]cn1)NC(=O)[C@H](CO)NC(=O)[C@H](C)NC(=O)CC[C@H](NC(=O)CCCCCCCCCCCCCCCCC(=O)O)C(=O)O)[C@@H](C)O)[C@@H](C)O)C(=O)N[C@@H](CC(C)C)C(=O)N1CCC[C@H]1C(=O)N1CCC[C@H]1C(=O)N[C@H](C(=O)N[C@@H](CC(=O)O)C(=O)N[C@H](C(=O)NCC(=O)N[C@@H](CO)C(=O)N[C@@H](CCC(=O)O)C(=O)N[C@H](C(=O)N1CCC[C@H]1C(N)=O)[C@@H](C)O)C(C)C)[C@@H](C)O [Compound 43, N^1-[(4S)-4-carboxy-4-(17-carboxyheptadecanoylamino)butanoyl]-[Ala1,Ser2,His3,Leu4,Ser5,Ala7,Gln8,Ala10,Glu14,His17,Pro25,Pro28,Pro29,Asp31,Glu35,Pro37],des-(19-22)-human amylin] ({C18 diacid-γGlu}-ASHLSTAQTARLAEFLHHFGPILPPTDVGSETP-NH2)
4 |  | 1.58 | 2.53 | CC[C@H](C)[C@H](NC(=O)[C@@H]1CCCN1C(=O)CNC(=O)[C@H](Cc1ccccc1)NC(=O)[C@H](CC(N)=O)NC(=O)[C@H](CC(N)=O)NC(=O)[C@H](CO)NC(=O)[C@H](CO)NC(=O)[C@H](Cc1c[nH]cn1)NC(=O)[C@H](CCCNC(=N)N)NC(=O)[C@H](CC(C)C)NC(=O)[C@H](Cc1ccccc1)NC(=O)[C@H](CCC(=O)O)NC(=O)[C@H](C)NC(=O)[C@H](CC(C)C)NC(=O)[C@H](CCCNC(=N)N)NC(=O)[C@H](CCC(N)=O)NC(=O)[C@@H](NC(=O)[C@H](C)NC(=O)[C@@H]1CSSC[C@H](NC(=O)[C@H](CCCCN)NC(=O)CC[C@H](NC(=O)CCCCCCCCCCCCCCCCCCC(=O)O)C(=O)O)C(=O)N[C@@H](CC(N)=O)C(=O)N[C@@H]([C@@H](C)O)C(=O)N[C@@H](C)C(=O)N[C@@H]([C@@H](C)O)C(=O)N1)[C@@H](C)O)C(=O)N[C@@H](CC(C)C)C(=O)N1CCC[C@H]1C(=O)N1CCC[C@H]1C(=O)N[C@H](C(=O)N[C@@H](CC(N)=O)C(=O)N[C@H](C(=O)NCC(=O)N[C@@H](CO)C(=O)N[C@@H](CC(N)=O)C(=O)N[C@H](C(=O)N1CCC[C@H]1C(N)=O)[C@@H](C)O)C(C)C)[C@@H](C)O [cagrilintide, reference compound]
